Laboratory results: ChEMBL document CHEMBL1914390, “A new method for induced fit docking (GENIUS) and its application to virtual screening of novel HCV NS3-4A protease inhibitors” (Bioorg Med Chem, 2011)
pEC50, pIC50: −log10 of the molar value.

What was measured:
[1] = Inhibition of HCV recombinant N-terminal histidine-tagged NS3/4A protease expressed Escherichia coli using Mca-Asp-Asp-Ile-Val-Pro-Cys-Ser-Met-Lys(Dnp)-Arg-Arg as fluorogenic substrate after 30 mins by FRET assay; parameters: species or system Hepacivirus hominis
Hepacivirus hominis [2] = experiment: Ratio of EC50 for HCV to IC50 for HCV recombinant N-terminal histidine-tagged NS3/4A protease
[3] = Cytotoxicity against human HuH7 cells expressing chimeric gene encoding firefly luciferase and neomycin phosphotransferase assessed as cell proliferation after 72 hrs by MTT assay; assay type: cell-based, Huh-7
Hepatitis C virus = experiment: Antiviral activity against Hepatitis C virus infected in human Huh7/Rep-Feo cells assessed as inhibition of viral replication after 72 hrs by luciferase assay; assay type: functional, organism-based, Hepacivirus hominis; conditions: Huh-7, 72 h
[4] = Selectivity index, ratio of CC50 for human HuH7 cells expressing chimeric gene encoding firefly luciferase and neomycin phosphotransferase by cell titer-glo luminescent cell viability assay to EC50 for HCV; parameters: species or system Huh-7
[5] = Cytotoxicity against human HuH7 cells expressing chimeric gene encoding firefly luciferase and neomycin phosphotransferase assessed as cell viability after 72 hrs by cell titer-glo luminescent assay; assay type: cell-based, Huh-7
[6] = Selectivity index, ratio of CC50 for human HuH7 cells expressing chimeric gene encoding firefly luciferase and neomycin phosphotransferase by MTT assay to EC50 for HCV; parameters: species or system Huh-7
Hepacivirus hominis [7] = experiment: Inhibition of HCV recombinant N-terminal histidine-tagged NS3/4A protease expressed Escherichia coli using Mca-Asp-Asp-Ile-Val-Pro-Cys-Ser-Met-Lys(Dnp)-Arg-Arg as fluorogenic substrate at 100 uM after 30 mins by FRET assay

| SMILES | pIC50 [1] | Ratio (Hepacivirus hominis [2]) | CC50 at 72 h [3] [µM] | pEC50 (Hepatitis C virus) | Ratio CC50/EC50 [4] | CC50 at 72 h [5] [µM] | Ratio CC50/EC50 [6] | inhibition (Hepacivirus hominis [7]) [%] |
| --- | --- | --- | --- | --- | --- | --- | --- | --- |
| COc1cc(/C=N/NC(=O)c2cc3cc([N+](=O)[O-])ccc3o2)cc([N+](=O)[O-])c1OCc1ccc([N+](=O)[O-])cc1 | 5.08 | – | – | – | – | – | – | – |
| COc1cc(/C=N/NC(=O)c2cc3cc([N+](=O)[O-])ccc3o2)c(C)cc1OCc1ccc([N+](=O)[O-])cc1 | 4.77 | – | – | – | – | – | – | – |
| COc1cc(/C=N/NC(=O)C(C)Oc2ccc([N+](=O)[O-])cc2)ccc1OC(=O)c1sc2ccccc2c1Cl (centres undefined) | 5.39 | 10 | > 125 | 3.92 | – | – | – | – |
| CCC(C)Oc1ccc(/N=N/C(=O)c2cc3cc([N+](=O)[O-])ccc3o2)cc1Br (centres undefined) | 4.64 | – | 57 | 4.87 | 2.6 | 36 | – | – |
| CCOc1cc(/C=N/NC(=O)C(C)Oc2ccc([N+](=O)[O-])cc2)ccc1OC(=O)c1ccc(Cl)cc1Cl (centres undefined) | – | – | > 125 | 4.64 | – | – | >5.4 | 42.9 |
| O=C(COc1ccc([N+](=O)[O-])cc1)N/N=C/c1ccccc1OC(=O)c1sc2ccccc2c1Cl | 5.97 | 10 | > 125 | 4.71 | 2.1 | 40 | – | – |
| COc1ccc(C(=O)Cc2ccc3ccccc3c2/C=N/NC(=O)COc2ccc([N+](=O)[O-])cc2)cc1 | 4.19 | – | > 125 | 5.07 | 1.1 | 9 | – | – |
| CCCOc1ccc(C(=O)Oc2ccc(/C=N/NC(=O)COc3ccc([N+](=O)[O-])cc3)cc2OCC)cc1 | – | – | > 125 | 4.89 | – | – | >9.6 | 38 |
| C=CCc1cc(/N=N/C(=O)c2cc3cc([N+](=O)[O-])ccc3o2)cc(OCC)c1OCc1ccc(Cl)cc1 | 5.09 | – | > 125 | < 3.90 | – | – | – | – |
| CC(Oc1ccc([N+](=O)[O-])cc1)C(=O)N/N=C/c1ccccc1OC(=O)c1sc2ccccc2c1Cl (centres undefined) | 6.00 | 10 | > 125 | 4.90 | 1.5 | 19 | – | – |
| COc1cc(/C=N/NC(=O)c2cc3cc([N+](=O)[O-])ccc3o2)ccc1OCc1ccc([N+](=O)[O-])cc1 | 5.07 | – | > 125 | 4.92 | >9.3 | > 80 | – | – |
| COc1cc(/C=N/NC(=O)COc2ccc([N+](=O)[O-])cc2)ccc1OC(=O)c1sc2ccccc2c1Cl | 4.91 | 10 | > 125 | 4.03 | – | – | – | – |
| CCc1cc(OCc2ccc([N+](=O)[O-])cc2)c(OC)cc1/C=N/NC(=O)c1cc2cc([N+](=O)[O-])ccc2o1 | 4.92 | – | – | – | – | – | – | – |
